Values of other authors as cited in patent publication US20210145778A1, “Stable Liquid Compositions of Melphalan” (Orbicular Pharmaceutical Technologies Pvt. Ltd., priority 2018, published 2021).

Structure (SMILES): N[C@@H](Cc1ccc(N(CCCl)CCCl)cc1)C(=O)O [Melphalan, L-phenylalanine mustard]
- Stability in aqueous solutions: poor stability
